Entries after “also recorded” stand apart in the source; their conditions may differ. Read-outs that look alike come from different tables or passages of the source.
Experiments:
[1] = tested on: CEB25-WT minisatellite sequence G4; test: TO G4-FID assay; assay type: binding; details: TO 2 eq, K+100 buffer
Procedure: (§1) For the G4-FID assay, the oligonucleotides were dissolved in K^+100 buffer (10 mM lithium cacodylate buffer pH 7.3, 100 mM KCl, 1% DMSO). Oligonucleotide concentrations were determined on the basis of their absorbance at 260 nm. For the fluorimetric titration, the oligonucleotides were dissolved in K^+100 buffer without DMSO. For the FRET-melting assay, the oligonucleotides were dissolved in K^+1 buffer (10 mM lithium cacodylate buffer pH 7.3, 1 mM KCl, 99 mM LiCl) except for F-21-T. F-21-T was dissolved in K^+10 buffer (10 mM lithium cacodylate buffer pH 7.3, 10 mM KCl, 90 mM LiCl).
(§2) Prior to use, all oligonucleotides were pretreated by heating at 95 °C for 5 min, then rapidly cooled to 4 °C to favor the intramolecular folding by kinetic trapping. Duplex-DNA ds26 was prepared by heating the self-complementary strand at 90 °C for 5 min in K^+1 buffer followed by a slow cooling over 6 h.
(§3) Each G4-FID assay was performed in a 96-well Non-Binding Surface black with black bottom polystyrene microplates (Corning). Every ligand was tested on a line of the microplate, in duplicate. The microplate was filled with (a) K^+100 solution (qs for 200 μL), (b) 10 μL of a solution of pre-folded oligonucleotides (5 μM) and fluorescent probe (TO/TO-PRO-3 (10 μM—2 eq) or PhenDV (7,5 µM—1.5 eq)), and (c) an extemporaneously prepared 5 μM ligand solution in K^+100 buffer (0 to 100 μL) along the line of the microplate, i.e., from column A to column H: 0, 0.125, 0.25, 0.375, 0.5, 0.625, 0.75, 1.0, 1.25, 1.5, 2.0, and 2.5 μM. After 5 min of orbital shaking at 500 rpm, fluorescence is measured using the following experimental parameters: positioning delay of 0.5 s, 20 flashes per well, emission/excitation filters for TO at 485/520, TO-PRO-3 at 620/670, and PhenDV at 355/520 gain adjusted at 80% of the fluorescence from the most fluorescent well (i.e., a well from column A for TO and a well from column H).
(§4) The percentage of TO displacement is calculated from the fluorescence intensity (F), using (1) % TO displacement=1−F/F0 where F0 is the fluorescence from the fluorescent probe bound to DNA without added ligand.
(§5) The PhenDV displacement is calculated from the fluorescence intensity F; F(ligand+probe), which refers to the fluorescence of the probe in presence of the ligand (without G4); and F0, which is the fluorescence without added ligand. The term F(ligand+probe) is necessary as the ligand can quench the fluorescence of the probe. The percentage of displacement is then plotted as a function of the concentration of the added ligand. The DNA affinity was evaluated by the concentration of ligand required to decrease the fluorescence of the probe by 50%, was noted DC50, and was determined after non-linear fitting of the displacement curve.

[2] = tested on: 22AG human telomeric sequence G4; test: TO G4-FID assay; assay type: binding; details: TO 2 eq, K+100 buffer
Procedure: as §1, §2, §3, §4, §5

[3] = tested on: c-myc G4; test: TO G4-FID assay; assay type: binding; details: TO 2 eq, K+100 buffer
Procedure: as §1, §2, §3, §4, §5

[4] = tested on: G4 structures (22AG, c-myc, 21CTA, CEB25-WT); test: TO-PRO-3-G4-FID assay, G4 structures; assay type: binding
Procedure: as §1, §2, §3, §4, §5

[5] = tested on: 21CTA human telomeric sequence variant G4; assay type: binding; details: PhenDV 1.5 eq, K+100 buffer
Procedure: as §1, §2, §3
(§6) In the case of PhenDV, the fluorescence of the unbound probe is not negligible. The percentage of displacement becomes (2) % PhenDV Displacement=F−F0/Fligand+probe−F0
as §5

[6] = tested on: A2780cis cisplatin-resistant ovarian cancer cell line; test: Cell growth (proliferation), 96 h treatment; assay type: cell-based, human
Procedure: (§7) The ovarian carcinoma cell lines and human normal lung cells were purchased from ATCC and were grown in complete RPMI medium (ovarian) and DMEM (human lung cells) supplemented with 10% fetal calf serum, in the presence of penicillin, streptomycin. The resistance of A2780cis cells to cisplatin was maintained by monthly treatment with 1 µM cisplatin for 4 days. Concentrated stock solutions of complexes were conserved at −20 °C (DMSO/Water) and freshly diluted in water just before the experiments. Cells were treated with various concentrations of platinum complexes at 37 °C under humidity and 5% CO2 conditions for 96 h. Cellular growth was quantified using the particle counter MOXI (VWR).

[7] = tested on: CCD19Lu normal lung cell line; test: Cell growth (proliferation), 96 h treatment; assay type: cell-based, human
Procedure: as §7

[8] = tested on: A2780 ovarian cancer cell line; test: Cell growth (proliferation), 96 h treatment; assay type: cell-based, human; details: for IC50: A2780, 96 h treatment
Procedure: as §7

[9] = tested on: CEB25-WT minisatellite sequence G4; test: PhenDV G4-FID assay; assay type: binding; details: PhenDV 1.5 eq, K+100 buffer
Procedure: as §1, §2, §3, §6, §5

[10] = tested on: 22AG human telomeric sequence G4; test: PhenDV G4-FID assay; assay type: binding; details: PhenDV 1.5 eq, K+100 buffer
Procedure: as §1, §2, §3, §6, §5

[11] = tested on: c-myc G4; test: PhenDV G4-FID assay; assay type: binding; details: PhenDV 1.5 eq, K+100 buffer
Procedure: as §1, §2, §3, §6, §5

[12] = tested on: 21CTA human telomeric sequence variant G4; assay type: binding; details: K+100 buffer; for % of TO displacement at 1 µM of ligand: TO 2 eq; for % of TOPRO3 displacement at 1 µM of ligand: TO-PRO-3 2 eq
Procedure: as §1, §2, §3, §4, §5

[13] = tested on: G4-DNA structures (F-21-T, F-myc-T, F-21CTA-T, F-CEB25-WT-T); test: FRET-melting assay (ligand-induced stabilization); assay type: binding, human
Procedure: as §1, §2
The stabilization of the compounds with a quadruplex-structure was monitored via FRET-melting assay performed in 96-well plates on a real-time PCR apparatus 7900HT Fast Real-Time PCR System as follows: 5 min at 25 °C and then an increase of 0.5 °C every minute until 95 °C. Each experimental condition was tested and replicated in a volume of 25 μL for each sample. The FRET-melting assay was performed with three dual fluorescently labeled DNA oligonucleotide sequences oligonucleotides. The donor fluorophore was 6-carboxyfluorescein, FAM, and the acceptor fluorophore was 6-carboxytetramethylrhodamine, TAMRA. The 96-well plates (Applied Biosystems) were prepared by aliquoting the annealed DNA (0.2 μM in K^+1 or K^+10 buffer) into each well, followed by 1 μL of the ligand ([…] (5 eq) in DMSO). For competition experiments, duplex competitors were added to 200 nM quadruplex sequences at final concentrations of 3.0 μM (15 eq) and 10.0 μM (50 eq), with a total reaction volume of 25 μL, with the labeled oligonucleotide (0.2 μM) and the ligand (1 μM). Measurements were made with excitation at 492 nm and detection at 516 nm. The change in the melting temperature at 1.0 μm compound concentration, ΔTm (1.0 μM), was calculated from at least two experiments by subtraction of the blank from the averaged melting temperature of each compound (1.0 μM). The final analysis of the data was carried out using Origin Pro 8.6 data analysis.

[14] = tested on: all the tested G4s structures; design: method as in PMID 21528379; details: cited from earlier work
[15] = tested on: CEB25-WT (DNA, G4) AAGGGTGGGTGTAAGTGTGGGTGGGT; test: G4-FID, thiazole orange displacement; details: 100 mM KCl; 10 mM lithium cacodylate pH 7.3, 1% DMSO; thiazole orange displaced; 1 µM compound, 0.25 µM DNA
[16] = tested on: c-myc (myc22) (DNA, G4) TGAGGGTGGGTAGGGTGGGTAA; test: G4-FID, thiazole orange displacement; details: 100 mM KCl; 10 mM lithium cacodylate pH 7.3, 1% DMSO; thiazole orange displaced; 1 µM compound, 0.25 µM DNA
[17] = tested on: 21CTA (DNA, G4) AGGGCTAGGGCTAGGGCTAGGG; test: G4-FID, thiazole orange displacement; details: 100 mM KCl; 10 mM lithium cacodylate pH 7.3, 1% DMSO; thiazole orange displaced; 1 µM compound, 0.25 µM DNA
[18] = tested on: ds26 (DNA, duplex) CAATCGGATCGAATTCGATCCGATTG; test: G4-FID, thiazole orange displacement; details: 100 mM KCl; 10 mM lithium cacodylate pH 7.3, 1% DMSO; thiazole orange displaced; 1 µM compound, 0.25 µM DNA
[19] = tested on: 22AG (DNA, G4) AGGGTTAGGGTTAGGGTTAGGG; test: G4-FID, thiazole orange displacement; details: 100 mM KCl; 10 mM lithium cacodylate pH 7.3, 1% DMSO; thiazole orange displaced; 1 µM compound, 0.25 µM DNA
[20] = tested on: F-CEB25-WT-T (DNA, G4) AGGGTGGGTGTAAGTGTGGGTGGGT; test: FRET-melting; details: 1 mM KCl, 99 mM LiCl; 10 mM lithium cacodylate pH 7.3; 1 µM compound, 0.2 µM DNA
[21] = tested on: F-myc-T (DNA, G4) TGAGGGTGGGTAGGGTGGGTAA; test: FRET-melting; details: 1 mM KCl, 99 mM LiCl; 10 mM lithium cacodylate pH 7.3; 1 µM compound, 0.2 µM DNA
[22] = tested on: F-21-T (DNA, G4) GGGTTAGGGTTAGGGTTAGGG; test: FRET-melting; details: 10 mM KCl, 90 mM LiCl; 10 mM lithium cacodylate pH 7.3; 1 µM compound, 0.2 µM DNA
[23] = tested on: F-21CTA-T (DNA, G4) AGGGCTAGGGCTAGGGCTAGGG; test: FRET-melting; details: 1 mM KCl, 99 mM LiCl; 10 mM lithium cacodylate pH 7.3; 1 µM compound, 0.2 µM DNA
[24] = tested on: c-myc* (DNA, G4) TGAGGGTGGGTAGGGTGGGTAA; test: denaturing gel electrophoresis, 3'-exonuclease digestion; details: 100 mM KCl or KClO4; covalent; platination at T20/A21 and G2/A3; 18 h, 32 °C, 10 µM DNA
[25] = tested on: c-myc (myc22) (DNA, G4) TGAGGGTGGGTAGGGTGGGTAA; test: G4-FID, PhenDV displacement; details: 100 mM KCl; 10 mM lithium cacodylate pH 7.3, 1% DMSO; PhenDV displaced; 1 µM compound
[26] = tested on: CEB25-WT minisatellite sequence G4; test: TO-PRO-3 G4-FID assay; assay type: binding; details: TO-PRO-3 2 eq, K+100 buffer
Procedure: as §1, §2, §3, §4, §5

[27] = tested on: 22AG human telomeric sequence G4; test: TO-PRO-3 G4-FID assay; assay type: binding; details: TO-PRO-3 2 eq, K+100 buffer
Procedure: as §1, §2, §3, §4, §5

[28] = tested on: c-myc G4; test: TO-PRO-3 G4-FID assay; assay type: binding; details: TO-PRO-3 2 eq, K+100 buffer
Procedure: as §1, §2, §3, §4, §5

F[P-](F)(F)(F)(F)F.[Pt+][C]#Cc1ccccc1.c1ccc(-c2cccc(-c3ccccn3)n2)nc1 [Pt(PA)-tpy, Phenylethylny-(2,6-bis(pyridin-2-yl)pyridine)-platinum(II) Hexafluorophosphate]
% of TO displacement at 1 µM of ligand [1]: 37% | % of TO displacement at 1 µM of ligand [2]: 55% | % of TO displacement at 1 µM of ligand [3]: 59% | TO-PRO-3 displacement [4]: weak displacement | % of PhenDV displacement at 1 µM of ligand [5]: 34% | IC50 [6]: 0.05 µM | Resistance Factor (IC50ratio A2780cis/A2780) [6]: 0.6 | IC50 [7]: 0.12 µM | IC50 [8]: 0.08 µM | IC50 in words ([8]; A2780 cell lines): active at nM concentration | % of PhenDV displacement at 1 µM of ligand [9]: 13% | % of PhenDV displacement at 1 µM of ligand [10]: 20% | % of PhenDV displacement at 1 µM of ligand [11]: 2% | % of TO displacement at 1 µM of ligand [12]: 52% | % of TOPRO3 displacement at 1 µM of ligand [12]: 3% | ∆Tm (ligand-induced stabilization, FRET-melting) [13]: complete lack of stabilization properties; also recorded: no stabilization

CN1/C(=C/C=C/c2cc[n+](CCC[N+](C)(C)C)c3ccccc23)Sc2ccccc21.[I-].[I-] [TO-PRO-3]
affinity constants towards all the tested G4s structures (Ka) [14]: ~ 10^6 M^−1

[Cl-].[Pt+2].c1cc(-c2ccc3ccccc3n2)nc(-c2ccc3ccccc3n2)c1
% TO displacement [15]: > 80% | % TO displacement [16]: > 80% | % TO displacement [17]: > 80% | % TO displacement [18]: < 20% | % TO displacement [19]: > 80%

[C-]#Cc1ccccc1.[Pt+2].c1ccc(-c2cccc(-c3ccccn3)n2)nc1
binding [20]: no | binding [21]: no | binding [22]: no | binding [23]: no

[Cl-].[Pt+2].c1ccc(-c2cccc(-c3ccccn3)n2)nc1
binding [24]: yes | ΔTm [20]: < 10 °C | ΔTm [21]: < 10 °C | ΔTm [22]: < 10 °C | ΔTm [23]: < 10 °C

N.N.[Cl][Pt][Cl] [cisplatin, reference compound]
Resistance Factor (IC50ratio A2780cis/A2780) ([6]; 96 h treatment): 9.1 | IC50 ([6]; A2780cis, 96 h treatment): 3 µM | IC50 [7]: 0.2 µM | IC50 [8]: 0.33 µM

C[n+]1cc(NC(=O)c2ccc3ccc4ccc(C(=O)Nc5cc6ccccc6[n+](C)c5)nc4c3n2)cc2ccccc21 [PhenDC3, reference compound]
% of TO displacement at 1 µM of ligand [1]: 90% | % of TO displacement at 1 µM of ligand [2]: 95% | % of TO displacement at 1 µM of ligand [3]: 96% | binding [25]: yes | % of PhenDV displacement at 1 µM of ligand [5]: 100% | % of PhenDV displacement at 1 µM of ligand [9]: 99% | % of PhenDV displacement at 1 µM of ligand [10]: 92% | % of PhenDV displacement at 1 µM of ligand [11]: 85% | % of TO displacement at 1 µM of ligand [12]: 95% | % of TOPRO3 displacement at 1 µM of ligand [12]: 83% | % of TOPRO3 displacement at 1 µM of ligand [26]: 88% | % of TOPRO3 displacement at 1 µM of ligand [27]: 85% | % of TOPRO3 displacement at 1 µM of ligand [28]: 73%
